The record followed here is patent US11786528B2, “Pyrazolopyrimidine compounds as adenosine receptor antagonists” (EXSCIENTIA LTD., priority 2018, dated 2023).

Test [1] concerns the target human adenosine receptor sub-type A2a (wild type) (Homo sapiens (Human), UniProt P29274). Briefly: Affinity for human adenosine A2a receptor by surface plasmon resonance (SPR). In kind it is binding. The method, then: (§1) Affinity for the human adenosine receptor sub-types (A2a, A2b, A1 and A3) was determined by surface plasmon resonance (SPR) using published methodologies (see below for further details).
(§2) Affinity for the human adenosine receptor sub-types (A2a, A2b, A1 and A3) was determined by SPR as described in Aristotelous, T., et al, Methods in Enzymology (2015), Volume 556, Chapter 23, pages 499-525 and Congreve, M., et al, J Med Chem (2012), Vol. 55, pages 1898-1903. The method used was analogous to the method used in Congreve, M., et al (see supplementary page S10) for the A2a receptor, but the wild type receptor was used rather than the proprietary StaR form.
(Surface plasmon resonance follows binding to a sensor surface in real time, without labels.)

The target of test [2] is human A2a receptors (HEK 293 transfected) (Homo sapiens (Human), UniProt P29274). The experiment in a line: Inhibition of cAMP release in HEK-A2aR cells (HTRF, LANCE Ultra cAMP). In kind it is cell-based. To be noted: 3 nM NECA, 10 min. The method, then:
Functional activity was measured by inhibition of cAMP release in HEK cells (see below for further details).
To screen A2a receptor inhibitors by HTRF technology, about 500 HEK-A2aR cells (HEK 293 transfected with human A2a receptors) were treated with inhibitors in presence of stimulation buffer (1×HBSS, 5 mM HEPES, 0.1% BSA stabilizer, pH 7.4) supplemented with 30 μM phosphodiesterase inhibitor Rolipram (to prevent cAMP degradation). This stimulation was immediately followed by treatment with 3 nM standard A2aR agonist (NECA) for 10 min under gentle shaking at room temperature. After that, inhibition of cAMP release was determined directly using LANCE Ultra cAMP assay (Perkin Elmer TRF0263).
All analysis was performed using GraphPad Prism 7.0 (GraphPad Software, San Diego, USA). Results are given, as EC50 (M).

In test [3] the target is human adenosine receptor sub-type A2b (Homo sapiens (Human), UniProt P29275). The experiment in a line: Affinity for human adenosine A2b receptor by SPR. It counts as binding. The method, then:
as §1, §2

The target in test [4] is human adenosine receptor sub-type A1 (Homo sapiens (Human), UniProt P30542). Briefly: Affinity for human adenosine A1 receptor by SPR. It counts as binding. How it is done: as §1, §2
Test [5] deals with human adenosine receptor sub-type A3 (Homo sapiens (Human), UniProt P0DMS8). Briefly: Affinity for human adenosine A3 receptor by SPR. It counts as binding. How it is done: as §1, §2
Setting [6] is: from SPR IC50 values, rounded to 2 significant figures.

Chain of human A2a receptors (HEK 293 transfected) (P29274 whole entry): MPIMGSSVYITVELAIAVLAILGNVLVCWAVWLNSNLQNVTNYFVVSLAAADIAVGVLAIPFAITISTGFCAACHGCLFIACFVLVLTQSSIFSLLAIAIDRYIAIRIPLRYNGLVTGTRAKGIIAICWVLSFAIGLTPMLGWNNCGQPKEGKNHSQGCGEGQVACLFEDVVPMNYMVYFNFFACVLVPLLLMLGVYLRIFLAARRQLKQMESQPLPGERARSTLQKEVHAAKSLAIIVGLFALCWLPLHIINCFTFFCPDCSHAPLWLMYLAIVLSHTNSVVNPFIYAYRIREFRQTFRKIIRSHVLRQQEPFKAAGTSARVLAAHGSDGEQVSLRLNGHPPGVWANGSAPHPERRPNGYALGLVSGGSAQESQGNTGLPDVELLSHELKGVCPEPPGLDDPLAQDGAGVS
Chain of human adenosine receptor sub-type A2a (wild type) (P29274 whole entry): as above
Chain of human adenosine receptor sub-type A1 (P30542 whole entry): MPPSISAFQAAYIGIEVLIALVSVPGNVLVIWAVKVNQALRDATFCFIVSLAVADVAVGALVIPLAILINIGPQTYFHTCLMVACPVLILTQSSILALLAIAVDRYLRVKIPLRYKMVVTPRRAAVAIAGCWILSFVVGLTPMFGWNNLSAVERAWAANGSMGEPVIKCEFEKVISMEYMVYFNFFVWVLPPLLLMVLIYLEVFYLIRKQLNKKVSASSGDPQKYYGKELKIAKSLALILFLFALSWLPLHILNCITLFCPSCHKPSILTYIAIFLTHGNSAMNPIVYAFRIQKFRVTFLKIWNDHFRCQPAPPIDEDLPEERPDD
Chain of human adenosine receptor sub-type A2b (P29275 whole entry): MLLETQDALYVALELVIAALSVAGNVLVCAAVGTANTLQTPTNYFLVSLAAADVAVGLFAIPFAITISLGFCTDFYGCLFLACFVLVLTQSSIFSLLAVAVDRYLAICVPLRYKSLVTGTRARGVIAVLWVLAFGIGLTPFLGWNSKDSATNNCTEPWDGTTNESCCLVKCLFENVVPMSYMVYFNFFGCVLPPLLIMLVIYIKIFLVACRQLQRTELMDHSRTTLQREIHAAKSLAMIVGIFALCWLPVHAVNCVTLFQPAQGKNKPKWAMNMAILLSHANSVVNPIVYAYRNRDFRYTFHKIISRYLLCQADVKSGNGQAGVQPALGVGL
Chain of human adenosine receptor sub-type A3 (P0DMS8 whole entry): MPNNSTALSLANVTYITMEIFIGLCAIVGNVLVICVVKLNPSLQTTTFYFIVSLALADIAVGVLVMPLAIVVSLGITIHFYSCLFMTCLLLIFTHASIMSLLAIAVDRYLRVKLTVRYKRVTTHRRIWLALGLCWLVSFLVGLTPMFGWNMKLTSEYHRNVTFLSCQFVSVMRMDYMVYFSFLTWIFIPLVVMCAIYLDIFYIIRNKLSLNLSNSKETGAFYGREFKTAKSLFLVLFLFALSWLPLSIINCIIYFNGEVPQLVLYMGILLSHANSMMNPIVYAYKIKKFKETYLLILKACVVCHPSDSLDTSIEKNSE

A word on the IC50: it is the concentration at which inhibition is half-maximal. A higher IC50 goes with weaker potency in that assay. Broadly, the EC50 is the concentration needed to bring the measured effect to its halfway point. A higher EC50 goes with weaker potency. On to `COc1cccc(Cn2cc3c(N)nc(-c4cnccn4)nc3n2)c1` [Example 2, 2-[(3-methoxyphenyl)methyl]-6-(pyrazin-2-yl)-2H-pyrazolo[3,4-d]pyrimidin-4-amine], for which, in test [1], the IC50 came to 6.7 nM. Further, it took 1530 nM to reach a half-maximal effect in test [2] (EC50).
In turn, `Nc1nc(-c2cnccn2)nc2nn(Cc3cccc(O)c3)cc12` [Example 3, 3-{[4-amino-6-(pyrazin-2-yl)-2H-pyrazolo[3,4-d]pyrimidin-2-yl]methyl}phenol] registered an IC50 in test [1] of 41 nM.
Take `COc1cccc(Cn2cc3c(N)nc(-c4ncco4)nc3n2)c1` [Example 4, 2-[(3-methoxyphenyl)methyl]-6-(1,3-oxazol-2-yl)-2H-pyrazolo[3,4-d]pyrimidin-4-amine]: the IC50 in test [1] was 4.9 nM. Also, the response in test [2] was half-maximal at 400 nM (EC50).
For the molecule `COc1cccc(Cn2cc3c(N)nc(-c4nc(C)cs4)nc3n2)c1` [Example 5, 2-[(3-methoxyphenyl)methyl]-6-(4-methyl-1,3-thiazol-2-yl)-2H-pyrazolo[3,4-d]pyrimidin-4-amine], the midpoint of inhibition in test [1], the IC50, lay at 47 nM. This counts as double-digit nanomolar.
For `COc1cccc(Cn2cc3c(N)nc(-c4cc(C)no4)nc3n2)c1` [Example 6, 2-[(3-methoxyphenyl)methyl]-6-(3-methyl-1,2-oxazol-5-yl)-2H-pyrazolo[3,4-d]pyrimidin-4-amine], in test [1], the IC50 worked out at 162 nM. This IC50 is about 3.4-fold higher than that of the molecule before.
On the same count and under the same terms, next, `COc1cccc(Cn2cc3c(N)nc(-c4snnc4C)nc3n2)c1` [Example 7, 2-[(3-methoxyphenyl)methyl]-6-(4-methyl-1,2,3-thiadiazol-5-yl)-2H-pyrazolo[3,4-d]pyrimidin-4-amine]: 24 nM.
In test [1], `COc1cccc(Cn2cc3c(N)nc(-c4cscn4)nc3n2)c1` [Example 9, 2-[(3-methoxyphenyl)methyl]-6-(1,3-thiazol-4-yl)-2H-pyrazolo[3,4-d]pyrimidin-4-amine] displayed an IC50 of 41 nM. The same molecule had an EC50 in test [2] of 875 nM.
The like results for `Cc1ccc(Cn2cc3c(N)nc(-c4ccsn4)nc3n2)cc1` [Example 13, 2-[(4-methylphenyl)methyl]-6-(1,2-thiazol-3-yl)-2H-pyrazolo[3,4-d]pyrimidin-4-amine] were, in that order, 15 nM and 128 nM.
In the same order, the values of `Cc1ccc(Cn2cc3c(N)nc(-c4nccs4)nc3n2)cc1` [Example 14, 2-[(4-methylphenyl)methyl]-6-(1,3-thiazol-2-yl)-2H-pyrazolo[3,4-d]pyrimidin-4-amine] are 14 nM and 54 nM.
`COc1ccc(Cn2cc3c(N)nc(-c4cnccn4)nc3n2)cc1` [Example 15, 2-[(4-methoxyphenyl)methyl]-6-(pyrazin-2-yl)-2H-pyrazolo[3,4-d]pyrimidin-4-amine] returned an IC50 in test [1] of 253 nM. This lies in the sub-micromolar range.
With `Nc1nc(-c2ccsn2)nc2nn(Cc3cccc(OC(F)(F)F)c3)cc12` [Example 16, 6-(1,2-thiazol-3-yl)-2-{[3-(trifluoromethoxy)phenyl]methyl}-2H-pyrazolo[3,4-d]pyrimidin-4-amine], half-maximal inhibition in test [1] (IC50) required 8.3 nM. Also, a half-maximal effect in test [2] (EC50) was put at 9 nM.
The molecule `Nc1nc(-c2ccsn2)nc2nn(Cc3ccc(C(F)(F)F)cc3)cc12` [Example 17, 6-(1,2-thiazol-3-yl)-2-{[4-(trifluoromethyl)phenyl]methyl}-2H-pyrazolo[3,4-d]pyrimidin-4-amine] returned a half-maximal inhibitory concentration (IC50) in test [1] of 54 nM. A half-maximal response in test [2] (EC50) required 226 nM.
In the case of `COc1cc(Cn2cc3c(N)nc(-c4ccsn4)nc3n2)ccc1C` [Example 18, 2-[(3-methoxy-4-methylphenyl)methyl]-6-(1,2-thiazol-3-yl)-2H-pyrazolo[3,4-d]pyrimidin-4-amine], 18 nM corresponded to half-maximal inhibition in test [1] (IC50). For the same molecule, a half-maximal response in test [2] (EC50) required 218 nM.
Regarding `Nc1nc(-c2ccsn2)nc2nn(Cc3cc(Cl)ccc3Cl)cc12` [Example 20, 2-[(2,5-dichlorophenyl)methyl]-6-(1,2-thiazol-3-yl)-2H-pyrazolo[3,4-d]pyrimidin-4-amine], 13 nM corresponded to half-maximal inhibition in test [1] (IC50). This molecule also yielded an EC50 in test [2] of 145 nM.
Regarding `Cc1ccc(Cn2cc3c(N)nc(-c4ccsn4)nc3n2)cc1C` [Example 21, 2-[(3,4-dimethylphenyl)methyl]-6-(1,2-thiazol-3-yl)-2H-pyrazolo[3,4-d]pyrimidin-4-amine], the concentration for half-maximal inhibition (IC50) in test [1] is 5 nM. Besides, the 50% effective concentration (EC50) in test [2] is 4 nM.
The molecule `Nc1nc(-c2ccsn2)nc2nn(Cc3ccccn3)cc12` [Example 22, 2-[(pyridin-2-yl)methyl]-6-(1,2-thiazol-3-yl)-2H-pyrazolo[3,4-d]pyrimidin-4-amine] gave a concentration for half-maximal inhibition (IC50) in test [1] of 27 nM.
In the case of `Cc1ccc(Cn2cc3c(N)nc(-c4ccsn4)nc3n2)cn1` [Example 23, 2-[(6-methylpyridin-3-yl)methyl]-6-(1,2-thiazol-3-yl)-2H-pyrazolo[3,4-d]pyrimidin-4-amine], the IC50 in test [1] came to 29 nM.
Consider `COc1cc(C)ccc1Cn1cc2c(N)nc(-c3ccsn3)nc2n1` [Example 25, 2-[(2-methoxy-4-methylphenyl)methyl]-6-(1,2-thiazol-3-yl)-2H-pyrazolo[3,4-d]pyrimidin-4-amine], for which the IC50 in test [1] came out at 18 nM. The concentration for a half-maximal effect (EC50) in test [2] stood at 407 nM.
The like results for `Cc1cccc(Cn2cc3c(N)nc(-c4ncco4)nc3n2)c1` [Example 26, 2-[(3-methylphenyl)methyl]-6-(1,3-oxazol-2-yl)-2H-pyrazolo[3,4-d]pyrimidin-4-amine] were, in that order, 2.8 nM and 123 nM.
`Nc1nc(-c2cnccn2)nc2nn(Cc3cccc(C(F)(F)F)c3)cc12` [Example 28, 6-(pyrazin-2-yl)-2-{[3-(trifluoromethyl)phenyl]methyl}-2H-pyrazolo[3,4-d]pyrimidin-4-amine] showed a 50% inhibitory concentration (IC50) in test [1] of 3.2 nM. For the same molecule, in test [2], the EC50 was 13 nM.
Turning to `Nc1nc(-c2ccsn2)nc2nn(Cc3cccc(F)c3)cc12` [Example 29, 2-[(3-fluorophenyl)methyl]-6-(1,2-thiazol-3-yl)-2H-pyrazolo[3,4-d]pyrimidin-4-amine], the concentration for half-maximal inhibition (IC50) in test [1] amounted to 15 nM. Besides, in test [2], the half-maximal effective concentration (EC50) was found to be 118 nM.
For the molecule `Nc1nc(-c2cnccn2)nc2nn(Cc3cccc(F)c3)cc12` [Example 30, 2-[(3-fluorophenyl)methyl]-6-(pyrazin-2-yl)-2H-pyrazolo[3,4-d]pyrimidin-4-amine], in test [1], the IC50 was 8 nM. This molecule also had an EC50 in test [2] of 232 nM.
The like results for `Cc1ccccc1Cn1cc2c(N)nc(-c3cnccn3)nc2n1` [Example 31, 2-[(2-methylphenyl)methyl]-6-(pyrazin-2-yl)-2H-pyrazolo[3,4-d]pyrimidin-4-amine] were, in that order, 5.7 nM and 56 nM.
The like results for `Cc1ccccc1Cn1cc2c(N)nc(-c3ccsn3)nc2n1` [Example 32, 2-[(2-methylphenyl)methyl]-6-(1,2-thiazol-3-yl)-2H-pyrazolo[3,4-d]pyrimidin-4-amine] were, in that order, 10 nM and 14 nM.
`Nc1nc(-c2nccs2)nc2nn(Cc3nccs3)cc12` [Example 33, 6-(1,3-thiazol-2-yl)-2-[(1,3-thiazol-2-yl)methyl]-2H-pyrazolo[3,4-d]pyrimidin-4-amine] yielded a half-inhibitory concentration (IC50) in test [1] of 27 nM. This molecule registered a concentration for a half-maximal effect (EC50) in test [2] of 2160 nM.
As for `Nc1nc(-c2ccsn2)nc2nn(Cc3nccs3)cc12` [Example 34, 2-[(1,3-thiazol-2-yl)methyl]-6-(1,2-thiazol-3-yl)-2H-pyrazolo[3,4-d]pyrimidin-4-amine], 67 nM corresponded to half-maximal inhibition in test [1] (IC50).
As to `Nc1nc(-c2cnccn2)nc2nn(Cc3cccc(Cl)c3)cc12` [Example 36, 2-[(3-chlorophenyl)methyl]-6-(pyrazin-2-yl)-2H-pyrazolo[3,4-d]pyrimidin-4-amine], in test [1], the IC50 stood at 1.5 nM. The same molecule came in with a 50% effective concentration (EC50) in test [2] of 30 nM.
Molecule `COc1ccccc1Cn1cc2c(N)nc(-c3ncco3)nc2n1` [Example 39, 2-[(2-methoxyphenyl)methyl]-6-(1,3-oxazol-2-yl)-2H-pyrazolo[3,4-d]pyrimidin-4-amine] displayed a half-maximal inhibitory concentration (IC50) in test [1] of 4.3 nM. Also, the response in test [2] was half-maximal at 213 nM (EC50).
In test [1], `Nc1nc(-c2ccsn2)nc2nn(Cc3cccc(O)c3)cc12` [Example 42, 3-{[4-amino-6-(1,2-thiazol-3-yl)-2H-pyrazolo[3,4-d]pyrimidin-2-yl]methyl}phenol] registered an IC50 of 61 nM.
As for `Nc1nc(-c2ccsn2)nc2nn(Cc3cccc(CO)c3)cc12` [Example 46, [3-[(4-amino-6-(1,2-thiazol-3-yl)-pyrazolo[3,4-d]pyrimidin-2-yl)methyl]phenyl]methanol], the concentration for half-maximal inhibition (IC50) in test [1] is 37 nM; in test [3] (SPR, human A2b receptor) it was > 100000 nM; in test [4] (SPR, human A1 receptor), > 100000 nM; in test [5] (SPR, human A3 receptor) it was > 100000 nM. The “Relative selectivity for A2a v. A2b” value in test [3] (setting [6]) is recorded as >2700. In addition, the “Relative selectivity for A2a v. A1” value in test [4] (setting [6]) is on record as >2700. In test [5] (setting [6]), the “Relative selectivity for A2a v. A3” value is >2700.
